Experimental findings from patent publication US10479780B2, “Aminopyrazole derivatives” (Chugai Seiyaku Kabushiki Kaisha, priority 2015, dated 2019) are described below.

What all share (format): biochemical
One experiment deals with T1, human Yes1 enzyme (Homo sapiens, UniProt P07947).
T1 construct: made in house
The experiment can be described thus: Yes1 enzyme inhibitory activity (time-resolved fluorometry, biotinylated peptide phosphorylation). The settings on record: read-out: YES_IC50. In short, it runs like this: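 Inhibition was expressed against a compound-free control to give IC50, using TR-FRET read-out (Eu-cryptate anti-pTyr antibody, streptavidin-XL665).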

For another experiment, the target named is T2, human Src enzyme (Homo sapiens, UniProt P12931).
T2 construct: purchased Carna Biosciences, Inc. 08-173
T2 sequence (P12931 whole entry): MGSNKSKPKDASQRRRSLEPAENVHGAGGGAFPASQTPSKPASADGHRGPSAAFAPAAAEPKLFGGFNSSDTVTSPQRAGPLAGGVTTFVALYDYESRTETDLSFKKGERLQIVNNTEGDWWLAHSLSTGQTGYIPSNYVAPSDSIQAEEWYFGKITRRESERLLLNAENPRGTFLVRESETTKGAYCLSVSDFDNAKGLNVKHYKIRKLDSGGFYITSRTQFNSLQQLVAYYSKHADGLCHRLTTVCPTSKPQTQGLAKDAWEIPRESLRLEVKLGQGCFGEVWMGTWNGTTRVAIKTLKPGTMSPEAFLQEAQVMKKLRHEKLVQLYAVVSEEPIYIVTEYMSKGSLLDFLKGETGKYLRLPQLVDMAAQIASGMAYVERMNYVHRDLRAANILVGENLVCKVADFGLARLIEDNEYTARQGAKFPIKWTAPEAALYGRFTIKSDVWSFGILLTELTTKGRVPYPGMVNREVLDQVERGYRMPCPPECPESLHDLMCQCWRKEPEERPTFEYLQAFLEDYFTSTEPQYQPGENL
As to the kind of experiment: Src enzyme inhibitory activity (time-resolved fluorometry, biotinylated peptide phosphorylation). The settings on record: read-out: SRC_IC50. In short, it runs like this:
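Compounds were tested for blocking tyrosine phosphorylation of a biotinylated peptide substrate by recombinant human Src. Phosphorylated product was quantified by time-resolved fluorometry using europium cryptate and XL665 conjugates, and IC50 was calculated against the compound-free control.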

For the next experiment, the target named is T3, human Lck enzyme (Homo sapiens, UniProt P06239).
T3 construct: purchased Carna Biosciences, Inc. 08-170
T3 sequence (P06239 whole entry): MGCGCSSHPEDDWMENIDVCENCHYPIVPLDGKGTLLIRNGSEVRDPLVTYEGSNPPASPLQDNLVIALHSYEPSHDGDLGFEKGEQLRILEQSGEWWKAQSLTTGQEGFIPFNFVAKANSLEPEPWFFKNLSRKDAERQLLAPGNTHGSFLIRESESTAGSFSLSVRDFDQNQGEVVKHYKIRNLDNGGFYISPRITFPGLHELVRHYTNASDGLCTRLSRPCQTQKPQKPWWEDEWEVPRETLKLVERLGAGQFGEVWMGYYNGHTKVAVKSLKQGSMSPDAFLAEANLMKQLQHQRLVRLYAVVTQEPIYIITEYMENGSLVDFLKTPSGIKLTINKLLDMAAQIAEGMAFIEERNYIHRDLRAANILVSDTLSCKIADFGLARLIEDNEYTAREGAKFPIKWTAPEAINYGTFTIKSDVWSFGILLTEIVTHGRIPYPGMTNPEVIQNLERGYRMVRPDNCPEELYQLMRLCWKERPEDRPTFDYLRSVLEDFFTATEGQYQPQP
The experiment can be described thus: Lck enzyme inhibitory activity (time-resolved fluorometry, biotinylated peptide phosphorylation). The settings on record: read-out: LCK_IC50. In short, it runs like this:
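Readout pairs a europium cryptate-labelled anti-phosphotyrosine antibody with XL665-streptavidin, measured by time-resolved fluorescence. IC50 derived from percent inhibition against untreated controls.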

T1 sequence (P07947 whole entry): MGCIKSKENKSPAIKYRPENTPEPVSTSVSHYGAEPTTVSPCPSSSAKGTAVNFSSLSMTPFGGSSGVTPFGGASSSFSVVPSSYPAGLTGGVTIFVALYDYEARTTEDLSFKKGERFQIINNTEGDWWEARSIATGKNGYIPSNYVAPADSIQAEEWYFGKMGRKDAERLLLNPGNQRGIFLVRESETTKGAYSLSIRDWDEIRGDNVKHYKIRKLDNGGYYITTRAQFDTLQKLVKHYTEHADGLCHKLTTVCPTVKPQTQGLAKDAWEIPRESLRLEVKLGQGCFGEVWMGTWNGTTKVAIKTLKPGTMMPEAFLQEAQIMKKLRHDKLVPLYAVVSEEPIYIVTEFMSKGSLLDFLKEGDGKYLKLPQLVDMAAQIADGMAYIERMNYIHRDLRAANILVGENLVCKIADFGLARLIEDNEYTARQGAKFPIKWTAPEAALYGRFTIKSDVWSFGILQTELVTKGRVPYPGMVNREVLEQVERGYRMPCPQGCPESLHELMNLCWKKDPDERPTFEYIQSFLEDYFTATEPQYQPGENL

Consider `Cc1cc(Oc2ccccc2F)ncc1-n1ncc(C(=O)c2cc3cc(F)c(NS(=O)(=O)NC4CC4)cc3[nH]2)c1N` [Example 5-1-020, [5-amino-1-[6-(2-fluorophenoxy)-4-methylpyridin-3-yl]pyrazol-4-yl]-[6-(cyclopropylsulfamoylamino)-5-fluoro-1H-indol-2-yl]methanone], for which the figures for the IC50 on human Yes1 enzyme, on human Src enzyme and at human Lck enzyme were 5.7 nM, 190 nM and 51 nM, respectively.
The matching figures for `Cc1cc(Oc2ccccc2F)ncc1-n1ncc(C(=O)c2cc3cc(F)c(NS(=O)(=O)NC(C)C)cc3[nH]2)c1N` [Example 5-1-021, [5-amino-1-[6-(2-fluorophenoxy)-4-methylpyridin-3-yl]pyrazol-4-yl]-[5-fluoro-6-(propan-2-ylsulfamoylamino)-1H-indol-2-yl] methanone]: 9.8 nM, 310 nM and 72 nM.
The matching figures for `CS(=O)(=O)Nc1cc2[nH]c(C(=O)c3cnn(-c4c(F)cc(Oc5ccccc5F)cc4F)c3N)cc2cc1F` [Example 5-1-022, N-[2-[5-amino-1-[2,6-difluoro-4-(2-fluorophenoxy)phenyl]pyrazole-4-carbonyl]-5-fluoro-1H-indol-6-yl]methanesulfonamide]: 2 nM, 62 nM and 10 nM.
The matching figures for `CS(=O)(=O)Nc1cc2[nH]c(C(=O)c3cnn(-c4c(Cl)cc(Oc5ccccc5F)cc4Cl)c3N)cc2cc1F` [Example 5-1-023, N-[2-[5-amino-1-[2,6-dichloro-4-(2-fluorophenoxy)phenyl]pyrazole-4-carbonyl]-5-fluoro-1H-indol-6-yl]methanesulfonamide]: 16 nM, 240 nM and 64 nM.
Consider `CS(=O)(=O)Nc1cc2[nH]c(C(=O)c3cnn(-c4c(Cl)cc(Oc5cccc(F)c5F)cc4Cl)c3N)cc2cc1F` [Example 5-1-024, N-[2-[5-amino-1-[2,6-dichloro-4-(2,3-difluorophenoxy)phenyl]pyrazole-4-carbonyl]-5-fluoro-1H-indol-6-yl]methanesulfonamide], for which the IC50 on human Yes1 enzyme is 26 nM; at human Src enzyme, 340 nM; on human Lck enzyme it was 83 nM.
The matching figures for `Nc1c(C(=O)c2cc3cc(F)c(NS(=O)(=O)C4CC4)cc3[nH]2)cnn1-c1c(Cl)cc(Oc2ccccc2F)cc1Cl` [Example 5-1-025, N-[2-[5-amino-1-[2,6-dichloro-4-(2-fluorophenoxy)phenyl]pyrazole-4-carbonyl]-5-fluoro-1H-indol-6-yl]cyclopropanesulfonamide]: 20 nM, 730 nM and 270 nM.
The matching figures for `Nc1c(C(=O)c2cc3cc(F)c(NS(=O)(=O)C4CC4)cc3[nH]2)cnn1-c1c(Cl)cc(Oc2cccc(F)c2F)cc1Cl` [Example 5-1-026, N-[2-[5-amino-1-[2,6-dichloro-4-(2,3-difluorophenoxy)phenyl]pyrazole-4-carbonyl]-5-fluoro-1H-indol-6-yl] cyclopropanesulfonamide]: 64 nM, 660 nM and 390 nM.
The matching figures for `Nc1c(C(=O)c2cc3cc(F)c(NS(=O)(=O)CCCF)cc3[nH]2)cnn1-c1c(F)cc(Oc2ccccc2F)cc1F` [Example 5-1-027, N-[2-[5-amino-1-[2,6-difluoro-4-(2-fluorophenoxy)phenyl]pyrazole-4-carbonyl]-5-fluoro-1H-indol-6-yl]-3-fluoropropane-1-sulfonamide]: 0.84 nM, 65 nM and 20 nM.
For the compound `Nc1c(C(=O)c2cc3cc(F)c(NS(=O)(=O)CCCF)cc3[nH]2)cnn1-c1c(Cl)cc(Oc2cccc(F)c2F)cc1Cl` [Example 5-1-028, N-[2-[5-amino-1-[2,6-dichloro-4-(2,3-difluorophenoxy)phenyl]pyrazole-4-carbonyl]-5-fluoro-1H-indol-6-yl]-3-fluoropropane-1-sulfanamide], the IC50 was 13 nM at human Yes1 enzyme, 350 nM at human Src enzyme and 200 nM on human Lck enzyme.
The matching figures for `Cc1cc(Oc2ccccc2F)ccc1-n1ncc(C(=O)c2cc3cc(F)c(NC(=O)C(F)(F)F)cc3[nH]2)c1N` [Example 5-1-029, N-[2-[5-amino-1-[4-(2-fluorophenoxy)-2-methylphenyl]pyrazole-4-carbonyl]-5-fluoro-1H-indol-6-yl]-2,2,2-trifluoroacetamide]: 0.73 nM, 17 nM and 13 nM.
The matching figures for `CS(=O)(=O)Nc1cc2[nH]c(C(=O)c3cnn(-c4c(F)cc(Oc5cccc(F)c5F)cc4F)c3N)cc2cc1F` [Example 5-1-030, N-[2-[5-amino-1-[4-(2,3-difluorophenoxy)-2,6-difluorophenyl]pyrazole-4-carbonyl]-5-fluoro-1H-indol-6-yl]methanesulfonamide]: 2.4 nM, 76 nM and 8.7 nM.
The matching figures for `Nc1c(C(=O)c2cc3cc(F)c(NS(=O)(=O)C4CC4)cc3[nH]2)cnn1-c1c(F)cc(Oc2cccc(F)c2F)cc1F` [Example 5-1-031, N-[2-[5-amino-1-[4-(2,3-difluorophenoxy)-2,6-difluorophenyl]pyrazole-4-carbonyl]-5-fluoro-1H-indol-6-yl]cyclopropanesulfonamide]: 4.1 nM, 220 nM and 34 nM.
For the compound `Cc1cc(Oc2ccccc2F)cc(C)c1-n1ncc(C(=O)c2cc3cc(F)c(NS(C)(=O)=O)cc3[nH]2)c1N` [Example 5-1-032, N-[2-[5-amino-1-[4-(2-fluorophenoxy)-2,6-dimethylphenyl]pyrazole-4-carbonyl]-5-fluoro-1H-indol-6-yl]methanesulfonamide], the IC50 stood at 11 nM at human Yes1 enzyme, 380 nM at human Src enzyme and 130 nM at human Lck enzyme.
The matching figures for `Nc1c(C(=O)c2cc3cc(F)c(NS(=O)(=O)CCCF)cc3[nH]2)cnn1-c1c(Cl)cc(Oc2ccccc2F)cc1Cl` [Example 5-1-033, N-[2-[5-amino-1-[2,6-dichloro-4-(2-fluorophenoxy)phenyl]pyrazole-4-carbonyl]-5-fluoro-1H-indol-6-yl]-3-fluoropropane-1-sulfonamide]: 8.4 nM, 400 nM and 230 nM.
Take `Nc1c(C(=O)c2cc3cc(F)c(NS(=O)(=O)CCCF)cc3[nH]2)cnn1-c1c(F)cc(Oc2cccc(F)c2F)cc1F` [Example 5-1-034, N-[2-[5-amino-1-[4-(2,3-difluorophenoxy)-2,6-difluorophenyl]pyrazole-4-carbonyl]-5-fluoro-1H-indol-6-yl]-3-fluoropropane-1-sulfonamide]: the IC50 on human Yes1 enzyme turned out to be 3.5 nM; on human Src enzyme, 180 nM; at human Lck enzyme it was 62 nM.
The matching figures for `Nc1c(C(=O)c2cc3cc(F)c(NS(=O)(=O)CCCF)cc3[nH]2)cnn1-c1ccc(Oc2ncccc2F)cc1F` [Example 5-1-035, N-[2-[5-amino-1-[2-fluoro-4-(3-fluoropyridin-2-yl)oxyphenyl]pyrazole-4-carbonyl]-5-fluoro-1H-indol-6-yl]-3-fluoropropane-1-sulfonamide]: 0.68 nM, 85 nM and 35 nM.
The matching figures for `Nc1c(C(=O)c2cc3cc(F)c(NS(=O)(=O)CCCF)cc3[nH]2)cnn1-c1ccc(Oc2ncccc2Cl)cc1F` [Example 5-1-036, N-[2-[5-amino-1-[4-(3-chloropyridin-2-yl)oxy-2-fluorophenyl]pyrazole-4-carbonyl]-5-fluoro-1H-indol-6-yl]-3-fluoropropane-1-sulfonamide]: 1.5 nM, 140 nM and 65 nM.
The matching figures for `Nc1c(C(=O)c2cc3cc(F)c(NS(=O)(=O)CCCF)cc3[nH]2)cnn1-c1ccc(Oc2ncccc2Cl)cc1Cl` [Example 5-1-037, N-[2-[5-amino-1-[2-chloro-4-(3-chloropyridin-2-yl)oxyphenyl]pyrazole-4-carbonyl]-5-fluoro-1H-indol-6-yl]-3-fluoropropane-1-sulfonamide]: 0.91 nM, 45 nM and 17 nM.
Turning to `Cc1cc(Oc2cc(F)cc(F)c2)ncc1-n1ncc(C(=O)c2cc3cc(F)c(NS(C)(=O)=O)cc3[nH]2)c1N` [Example 5-1-038, N-[2-[5-amino-1-[6-(3,5-difluorophenoxy)-4-methylpyridin-3-yl]pyrazole-4-carbonyl]-5-fluoro-1H-indol-6-yl]methanesulfonamide], the IC50 at human Yes1 enzyme turned out to be 16 nM; at human Src enzyme, 270 nM; on human Lck enzyme, 66 nM.
The matching figures for `Cc1cc(-n2ncc(C(=O)c3cc4cc(F)c(NS(C)(=O)=O)cc4[nH]3)c2N)cnc1Oc1ccccc1F` [Example 5-1-039, N-[2-[5-amino-1-[6-(2-fluorophenoxy)-5-methylpyridin-3-yl]pyrazole-4-carbonyl]-5-fluoro-1H-indol-6-yl]methanesulfonamide]: 120 nM, 6100 nM and 2000 nM.
The matching figures for `Cc1cc(Oc2ccccc2F)cc(C)c1-n1ncc(C(=O)c2cc3cc(F)c(NS(=O)(=O)CCCF)cc3[nH]2)c1N` [Example 5-1-040, N-[2-[5-amino-1-[4-(2-fluorophenoxy)-2,6-dimethylphenyl]pyrazole-4-carbonyl]-5-fluoro-1H-indol-6-yl]-3-fluoropropane-1-sulfonamide]: 13 nM, 280 nM and 88 nM.
